From PMC5659129, “Determinants of the Inhibition of DprE1 and CYP2C9 by Antitubercular Thiophenes” (Angewandte Chemie (International Ed. in English), 2017)
In brackets after ≈: the same amount, converted by molar mass.

System: Mtb Y314C mutant strain
Assay type: cell-based, Mycobacterium tuberculosis

| Compound | MIC Y314C [µM] |
| --- | --- |
| CCOC(=O)NC(=O)c1ccsc1NC(=O)c1nc2ccccc2s1 [TCA1] | 5.4 ± 0.32 (≈ 2.03 µg/mL) |
| CCOC(=O)NC(=O)c1ccsc1NC(=O)c1nc2cnccc2s1 [TCA007] | 2.4 ± 0.34 (≈ 0.903 µg/mL) |
| O=C(Nc1sccc1C(=O)Nc1ncccn1)c1nc2cnccc2s1 [TCA020] | 17 ± 1.1 (≈ 6.5 µg/mL) |
| CCOC(=O)NC(=O)c1cc(F)sc1NC(=O)c1nc2ccccc2s1 [TCA481] | 1.4 ± 0.086 (≈ 0.551 µg/mL) |
| Cc1ccnc(NC(=O)c2ccsc2NC(=O)c2nc3cnccc3s2)n1 [TCA787] | 14 ± 1.4 (≈ 5.55 µg/mL) |
